Laboratory results from US5559232A, “Carboxamides” (Hoffmann-La Roche Inc., priority 1993, dated 1996).

Assays:
human thrombin = human thrombin (Homo sapiens, UniProt P00734); experiment: inhibition of the amidolytic activity of thrombin (chromogenic substrate S-2238); assay type: biochemical; details: for Ki: human thrombin 0.5 nM, substrate S-2238, pH 7.8, room temperature; for q (ratio of the inhibition of trypsin to the inhibition of thrombin): specificity: Ki trypsin / Ki thrombin
Method: A differential inhibition of thrombin and other serine proteases by the above compounds is desirable in order to obtain compounds having as high a specificity as possible and at the same time to avoid possible side-effects.
Specific chromogenic peptide substrates can be used to determine the inhibition of the catalytic activity of the above proteases. The inhibition of the amidolytic activity of thrombin and trypsin by the above guanidines was determined as described hereinafter.
The measurements were carried out on microtitre plates at room temperature. For this, in each well of the plate 150 μl of buffer (50 mM Tris, 100 mM NaCl, 0.1% polyethylene glycol; pH 7.8) were mixed with 50 μl of the inhibitor dissolved in DMSO and diluted in the buffer, and 25 μl of human thrombin (0.5 nM final conc.) were added. After incubation for 10 minutes the reaction was started by the addition of chromogenic substrate S-2238 (H-D-Phe-Pip-Arg-paranitroaniline from Kabivitrum; 10 or 50 μm final conc.) and the hydrolysis of the substrate was followed spectrophotometrically on a kinetic microtiter plate reader for 5 minutes. After graphical presentation of the inhibition curves the Ki values were determined according to the method described in Blochem. J. 55, 1955, 170-171.

trypsin = experiment: inhibition of the amidolytic activity of trypsin (chromogenic substrate S-2251); assay type: biochemical; details: substrate S-2251, 200 and 750 μM, otherwise analogous to thrombin

| SMILES | Ki (human thrombin) | q (ratio of the inhibition of trypsin to the inhibition of thrombin) (human thrombin) | Ki (trypsin) |
| --- | --- | --- | --- |
| CCCCN(CCC(=O)OCC)C(=O)[C@H](CC(=O)NCC1CN(C(=N)N)CCO1)NC(=O)OCc1ccccc1 (stereo partly drawn) [Example 5d, ethyl 3-[[(S)-3-[4-(amino-imino-methyl)-morpholin-2-ylmethylcarbamoyl]-2-benzyloxycarbonylaminopropionyl]-butyl-amino]-propionate] | 0.13 µM | 92 | 12 µM |
| CC(C)(C)OC(=O)N[C@@H](CC(=O)NC[C@@H]1CCCN(C(=N)N)C1)C(=O)N(CCNC(=O)c1cnccn1)C1CC1 [Example 19, (S)-N4-[(S)-1-(amino-imino-methyl)-piperidin-3-yimethyl]-2-tert-butoxycarbonylamino-N1-cyclopropyl-N1-(2-pyrazin-2-ylcarbonylamino)-succinamide] | 0.0069 µM | 449 | 3.1 µM |
| COC(=O)CC[C@H](O)C(=O)N[C@@H](CC(=O)NC[C@@H]1CCCN(C(=N)N)C1)C(=O)N(CCNC(=O)c1cnccn1)C1CC1 [Example 21b, methyl (S)-4-[(S)-2-[(S)-1-(amino-imino-methyl)-piperidin-3-ylmethylcarbonyl]-1-[cyclopropyl-(2-pyrazin-2-ylcarbonylaminoethyl)-carbamoyl]-ethylcarbamoyl]-4-hydroxy-butrate] | 0.0072 µM | 1944 | 14 µM |
| N=C(N)N1CCOC(CNC(=O)C[C@H](NC(=O)OCc2ccccc2)C(=O)N(CCC(=O)O)C2CC2)C1 (stereo partly drawn) [Example 6c, 3-[[(S)-3-[4-(amino-imino-methyl)-morpholin-2-ylmethylcarbamoyl]-2-benzyloxycarbonylamino-propionyl]-cyclopropyl-amino]propionic acid] | 0.33 µM | 279 | 92 µM |
| CCOC(=O)CCN(C(=O)[C@H](CC(=O)NCC1CN(C(=N)N)CCO1)NC(=O)OCc1ccccc1)C1CC1 (stereo partly drawn) [Example 5c, ethyl 3-[[(S)-3-[4-(amino-imino-methyl)-morpholin-2-ylmethylcarbamoyl]-2-benzyloxycarbonylamino-propionyl]-cyclopropyl-amino]-propionate] | 0.054 µM | 537 | 29 µM |
| N=C(N)N1CCC[C@@H](CNC(=O)C[C@H](NC(=O)OCC2CCCCC2)C(=O)N(CC(=O)O)C2CC2)C1 [Example 8, [[(S)-3-[(S)-1-(Amino-imino-methyl)-piperidin-3-ylmethylcarbamoyl]-2-cyclohexylmethoxycarbonylamino-propionyl]cyclopropyl-amino]-acetic acid] | 0.017 µM | 1588 | 27 µM |
| CCCCN(CC(=O)O)C(=O)[C@H](CC(=O)NCC1CN(C(=N)N)CCO1)NC(=O)OCc1ccccc1 (stereo partly drawn) [Example 6b, [[(S)-3-[4-(amino-imino-methyl)-morpholin-2-ylmethylcarbamoyl]-2-benzyloxycarbonylamino-propionyl]-butyl-amino]-acetic acid] | 0.0035 µM | 18571 | 65 µM |
| CCCCN(CCC(=O)OCC)C(=O)[C@H](CC(=O)NC[C@@H]1CCCN(C(=N)N)C1)NC(=O)OCc1ccccc1 [Example 2c, ethyl 3-[[(S)-3-[(S)-1-(amino-imino-methyl)-piperidin-3-ylmethylcarbamoyl]-2-benzyloxycarbonylamino-propionyl]-butylamino]-propionate] | 0.077 µM | 390 | 30 µM |
| CCCCN(CC(=O)OCC)C(=O)[C@H](CC(=O)NCC1CN(C(=N)N)CCO1)NC(=O)OCc1ccccc1 (stereo partly drawn) [Example 5b, ethyl [[(S)-3-[4-(amino-imino-methyl)-morpholin-2-ylmethylcarbamoyl]-2-benzyloxycarbonylaminopropionyl]-butyl-amino]-acetate] | 0.03 µM | 5000 | 150 µM |
| N=C(N)N1CCC[C@@H](CNC(=O)C[C@H](NC(=O)CSc2ncccn2)C(=O)N(CCNC(=O)c2cnccn2)C2CC2)C1 [Example 20, (S)-N4-[(S)-1-(amino-imino-methyl)-piperidin-3-ylmethyl]-N1-cyclopropyl-N1-(2-pyrazin-2-ylcarbonylamino-ethyl)-2-pyrimidin-2-ylsulphanylacetylamino-succinamide] | 0.00086 µM | 5233 | – |
| CC(=O)N[C@@H](Cc1c[nH]c2ccccc12)C(=O)N[C@@H](CC(=O)NC[C@@H]1CCCN(C(=N)N)C1)C(=O)N(CCNC(=O)c1cnccn1)C1CC1 [Example 21c, (S)-2-[(S)-2-acetylamino-3-indol-3-yl-propionylamino]-N4-[(S)-1-(amino-imino-methyl)-piperidin-3-ylmethyl]-N1-cyclopropyl-N1-(2-pyrazin-2-ylcarbonylamino-ethyl)-succinamide] | 0.0061 µM | 2459 | 15 µM |
| N=C(N)N1CCOC(CNC(=O)C[C@H](NC(=O)OCc2ccccc2)C(=O)N(CC(=O)O)C2CC2)C1 (stereo partly drawn) [Example 6a] | 0.45 µM | 311 | – |

Results, then the compound that gave them:

| Ki (human thrombin) | q (ratio of the inhibition of trypsin to the inhibition of thrombin) (human thrombin) | Ki (trypsin) | SMILES |
| --- | --- | --- | --- |
| 0.043 µM | 814 | 35 µM | N=C(N)N1CCC[C@@H](CNC(=O)C[C@H](NC(=O)NCc2ccccc2)C(=O)N(CC(=O)O)C2CC2)C1 [Example 11, [[(S)-3-[(S)-1-(amino-imino-methyl)-piperidin-3-ylmethylcarbamoyl]2-(3-benzyl-ureido)-propionyl]-cyclopropyl-amino]-acetic acid] |
| 0.25 µM | 332 | 83 µM | N=C(N)N1CCC[C@@H](CNC(=O)C[C@H](NC(=O)c2ccccc2)C(=O)N(CC(=O)O)C2CC2)C1 [Example 14d, [[(S)-3-[(S)-1-(amino-imino-methyl)-piperidin-3-ylmethylcarbarnoyl]-2-benzoylamino-propionyl]-cyclopropyl-amino]-acetic acid] |
| 0.017 µM | 1706 | 29 µM | CCOC(=O)CCN(C(=O)[C@H](CC(=O)NC[C@@H]1CCCN(C(=N)N)C1)NC(=O)OCc1ccccc1)C1CC1 [Example 2a, Ethyl 3-[[(S)-3-[(S)-1-(amino-imino-methyl)-piperidin-3-ylmethylcarbamoyl]-2-benzyloxycarbonylamino-propionyl]-cyclopropylamino]-propionate] |
| 0.0018 µM | 7222 | 13 µM | N=C(N)N1CCC[C@@H](CNC(=O)C[C@H]2C(=O)N(C3CC3)CC(=O)N2S(=O)(=O)c2ccc3ccccc3c2)C1 [Example 15, N-[(S)-1-(amino-imino-methyl)-piperidin-3-ylmethyl]-2-[(S)-4-cyclopropyl-1-naphthalen-2-ylsulphonyl-3,6-dioxo-piperazin-2-yl]-acetamide] |
| 0.0046 µM | 2826 | 13 µM | N=C(N)N1CCC[C@@H](CNC(=O)C[C@H](NS(=O)(=O)N2CCOCC2)C(=O)N(CCNC(=O)OCc2ccccc2)C2CC2)C1 [Example 23, benzyl 2-[[(S)-3-[(S)-1-(amino-imino-methyl)-piperidin-3-ylmethylcarbamoyl]-2-morpholin-4-ylsulphonylamino-propionyl]cyclopropyl-amino]-ethylcarbamate] |
| 0.081 µM | 852 | 69 µM | N=C(N)N1CCC[C@@H](CNC(=O)C[C@H](NC(=O)Cc2ccccc2)C(=O)N(CC(=O)O)C2CC2)C1 [Example 14e, [[(S)-3-[(S)-1-(amino-imino-methyl)-piperidin-3-ylmethylcarbamoyl]-2-benzylcarbonylamino-propionyl]-cyclopropyl-amino]acetic acid] |
| 0.012 µM | 1583 | 19 µM | N=C(N)N1CCC[C@@H](CNC(=O)C[C@H](NC(=O)OCc2ccccc2)C(=O)N(CC(=O)O)C2CC2)C1 [Example 3, [[(S)-3-[(S)-1-(amino-imino-methyl)-piperidin-3-ylmethylcarbamoyl]-2-benzyloxycarbonylamino-propionyl]-cyclopropylamino]-acetic acid] |
| 0.0023 µM | 3870 | 8.9 µM | N=C(N)N1CCC[C@@H](CNC(=O)C[C@H](NC(=O)CCc2c[nH]c3ccccc23)C(=O)N(CCNC(=O)c2cnccn2)C2CC2)C1 [Example 21a, (S)-N4-[(S)-1-(amino-imino-methyl)-piperidin-3-ylmethyl]-N1-cyclopropyl-2-(3-indol-3-yl-propionylamino)-N1-(2-pyrazin-2-ylcarbonylamino-ethyl)-succinamide] |
| 0.0013 µM | 19231 | – | N=C(N)N1CCC[C@@H](CNC(=O)C[C@H](NC(=O)COc2ccccc2)C(=O)N(CCNC(=O)c2cnccn2)C2CC2)C1 [Example 21d, N4-[(S)-1-(amino-imino-methyl)-piperidin-3-ylmethyl]N1-cyclopropyl-2-phenoxyacetylamino-N1-(2-pyrazin-2-ylcarbonylamino-ethyl)-succinamide] |
